Source: ChEMBL document CHEMBL1201862, “PubChem BioAssay data set” (2004)
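Briefly, cells in 96-well plates were exposed to five compound concentrations for 48 h, and endpoints were estimated by linear interpolation. Here, GI50 denotes the concentration required for 50% inhibition of growth.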 Active and inactive are the calls of the source. No stated cut-off is given here; in the data, active = GI50 up to about 1.1 µM and inactive = higher.

Columns and labels:
Experiment in all cases: NCI anticancer screen, dose series, 48 h
HL-60 = test system: HL-60
IGROV-1 = test system: IGROV-1
SK-OV-3 = test system: SK-OV-3
CAKI-1 = test system: CAKI-1
SNB-19 = test system: SNB-19
SNB-75 = test system: SNB-75
OVCAR-8 = test system: OVCAR-8
KM12 = test system: KM12
HCC 2998 = test system: HCC 2998
NCI-H226 = test system: NCI-H226
M14 = test system: M14
CCRF-CEM = test system: CCRF-CEM
UACC-62 = test system: UACC-62
SF-295 = test system: SF-295
TK-10 = test system: TK-10
NCI-H23 = test system: NCI-H23
U-251 = test system: U-251
HOP-92 = test system: HOP-92
786-0 = test system: 786-0
SR = test system: SR

SMILES	GI50 (HL-60)	GI50 (IGROV-1)	GI50 (SK-OV-3)	GI50 (CAKI-1)	GI50 (SNB-19)	GI50 (SNB-75)	GI50 (OVCAR-8)	GI50 (KM12)	GI50 (HCC 2998)	GI50 (NCI-H226)	GI50 (M14)	GI50 (CCRF-CEM)	GI50 (UACC-62)	GI50 (SF-295)	GI50 (TK-10)	GI50 (NCI-H23)	GI50 (U-251)	GI50 (HOP-92)	GI50 (786-0)	GI50 (SR)
N#CN=C(N(Cc1ccccc1)Cc1ccccc1)N(Cc1ccccc1)Cc1ccccc1	5.14 µM (inactive)	3.48 µM (inactive)	21.8 µM (inactive)	11.6 µM (inactive)	28.7 µM (inactive)	95.7 µM (inactive)	6.7 µM (inactive)	11.9 µM (inactive)	47 µM (inactive)	32.5 µM (inactive)	15.3 µM (inactive)	5.73 µM (inactive)	6.32 µM (inactive)	> 100 µM (inactive)						
CC#C[C@@]1(O)CCCC[C@@H]1O	> 100 µM (inactive)	> 100 µM (inactive)	> 100 µM (inactive)		> 100 µM (inactive)	> 100 µM (inactive)	> 100 µM (inactive)	> 100 µM (inactive)	> 100 µM (inactive)	> 100 µM (inactive)	> 100 µM (inactive)	> 100 µM (inactive)	> 100 µM (inactive)	> 100 µM (inactive)	> 100 µM (inactive)	> 100 µM (inactive)	> 100 µM (inactive)	> 100 µM (inactive)	> 100 µM (inactive)	
Cc1ncc([N+](=O)[O-])n1CC[N+](C)([O-])CCCCn1ccnc1[N+](=O)[O-] (stereo not given)	> 100 µM (inactive)	> 100 µM (inactive)	> 100 µM (inactive)	> 100 µM (inactive)		> 100 µM (inactive)	> 100 µM (inactive)	> 100 µM (inactive)		> 100 µM (inactive)	> 100 µM (inactive)	> 100 µM (inactive)	> 100 µM (inactive)	> 100 µM (inactive)	> 100 µM (inactive)	> 100 µM (inactive)	> 100 µM (inactive)		> 100 µM (inactive)	> 100 µM (inactive)
COC1CC(=O)C2C(=O)N(c3ccccc3)C(=O)C23C(C(=O)c2ccccc2)=C(C)NC13O (stereo not given)		10.4 µM (inactive)	19.9 µM (inactive)	4.6 µM (inactive)	21.4 µM (inactive)		21.1 µM (inactive)	18 µM (inactive)			15.5 µM (inactive)	3.69 µM (inactive)	16.4 µM (inactive)	32.4 µM (inactive)	6.32 µM (inactive)	15.3 µM (inactive)	17.3 µM (inactive)	< 0.01 µM (active)	2.12 µM (inactive)	
O=C1C=C(Br)c2c(-c3ccccc3)oc3cccc1c23	19.1 µM (inactive)	32.3 µM (inactive)	54.1 µM (inactive)	> 76.9 µM (inactive)	42.1 µM (inactive)	5.45 µM (inactive)	58.2 µM (inactive)	> 53 µM (inactive)	99.8 µM (inactive)	> 80.9 µM (inactive)	54.5 µM (inactive)	7.48 µM (inactive)	38.1 µM (inactive)	22.9 µM (inactive)	38.1 µM (inactive)	> 52.6 µM (inactive)	18.4 µM (inactive)	25.4 µM (inactive)	51.8 µM (inactive)	
O=C1/C(=C/c2ccccc2)CN(C(=O)C(Cl)(Cl)Cl)C/C1=C\c1ccccc1	0.159 µM (active)	2.06 µM (inactive)			2.82 µM (inactive)	3.27 µM (inactive)	1.73 µM (inactive)	1.29 µM (inactive)			1.26 µM (inactive)	0.551 µM (active)	1.68 µM (inactive)	1.82 µM (inactive)	2.57 µM (inactive)	2.37 µM (inactive)	1.64 µM (inactive)		2.89 µM (inactive)	1.85 µM (inactive)
C/C(=C/c1c(C)[nH]c(=O)[nH]c1=O)C(=O)O	> 1370 µM (inactive)	> 1370 µM (inactive)	> 1370 µM (inactive)	> 1370 µM (inactive)	> 1370 µM (inactive)	> 1370 µM (inactive)		> 1370 µM (inactive)	> 1370 µM (inactive)	> 1370 µM (inactive)		> 1370 µM (inactive)	> 1370 µM (inactive)	> 1370 µM (inactive)		> 1370 µM (inactive)	> 1370 µM (inactive)			
Cc1c2c(n(CCN(C)C)c1C)NN=C(C#N)S2(=O)=O		> 100 µM (inactive)	> 100 µM (inactive)		> 100 µM (inactive)	> 100 µM (inactive)	> 100 µM (inactive)	> 100 µM (inactive)	> 100 µM (inactive)	> 100 µM (inactive)	> 100 µM (inactive)		> 100 µM (inactive)		> 100 µM (inactive)	> 100 µM (inactive)	> 100 µM (inactive)		> 100 µM (inactive)	
O=c1cc(NNc2ccccc2)[nH]c(=O)[nH]1	18.2 µM (inactive)	34.9 µM (inactive)	> 100 µM (inactive)		21.1 µM (inactive)		23.4 µM (inactive)	18.8 µM (inactive)	19.9 µM (inactive)	19 µM (inactive)		27.5 µM (inactive)	14.8 µM (inactive)	37.9 µM (inactive)	47.3 µM (inactive)	56.8 µM (inactive)	16.1 µM (inactive)		15.8 µM (inactive)	28.2 µM (inactive)
CC1(C)OCC[C@@H]1[Si](C)(C)C		> 100 µM (inactive)	> 100 µM (inactive)		> 100 µM (inactive)	52.1 µM (inactive)	> 100 µM (inactive)	> 100 µM (inactive)		70.1 µM (inactive)	> 100 µM (inactive)	26.9 µM (inactive)	24.5 µM (inactive)	90.8 µM (inactive)	73.5 µM (inactive)	53.6 µM (inactive)	> 100 µM (inactive)	55.8 µM (inactive)	> 100 µM (inactive)	
C/C=C/C(C#N)O[Si](C)(C)C (stereo not given)	> 100 µM (inactive)	> 100 µM (inactive)	> 100 µM (inactive)	> 100 µM (inactive)	> 100 µM (inactive)	> 100 µM (inactive)	> 100 µM (inactive)	> 100 µM (inactive)	> 100 µM (inactive)	> 100 µM (inactive)	> 100 µM (inactive)		> 100 µM (inactive)	> 100 µM (inactive)	> 100 µM (inactive)	> 100 µM (inactive)	> 100 µM (inactive)	> 100 µM (inactive)	> 100 µM (inactive)	
CN(/N=C/c1cccc2cccnc12)c1ccc([N+](=O)[O-])cc1[N+](=O)[O-]	40.8 µM (inactive)	24.5 µM (inactive)	20.6 µM (inactive)	24.4 µM (inactive)	11.3 µM (inactive)	10.1 µM (inactive)	32.7 µM (inactive)	> 100 µM (inactive)	71 µM (inactive)	24 µM (inactive)	54.7 µM (inactive)	> 96.6 µM (inactive)	25.1 µM (inactive)	13 µM (inactive)	29 µM (inactive)	24.5 µM (inactive)	13.9 µM (inactive)	14.8 µM (inactive)	13.3 µM (inactive)	
